Source: ChEMBL document CHEMBL5338706, “Discovery of a potent and selective proteolysis targeting chimera (PROTAC) degrader of NSD3 histone methyltransferase” (Eur J Med Chem, 2022)
The source made the active and inactive calls. No cut-off for these calls is given here.

Tests used:
[1] = molecular target: T1, Histone-lysine N-methyltransferase NSD2 (Homo sapiens) (UniProt O96028); assay: Induction of NSD2 degradation in human A549 cells at 5 to 10 uM incubated for 72 hrs by Western blot analysis; assay type: cell-based; details: dose 5-10 µM
T1 sequence (whole entry): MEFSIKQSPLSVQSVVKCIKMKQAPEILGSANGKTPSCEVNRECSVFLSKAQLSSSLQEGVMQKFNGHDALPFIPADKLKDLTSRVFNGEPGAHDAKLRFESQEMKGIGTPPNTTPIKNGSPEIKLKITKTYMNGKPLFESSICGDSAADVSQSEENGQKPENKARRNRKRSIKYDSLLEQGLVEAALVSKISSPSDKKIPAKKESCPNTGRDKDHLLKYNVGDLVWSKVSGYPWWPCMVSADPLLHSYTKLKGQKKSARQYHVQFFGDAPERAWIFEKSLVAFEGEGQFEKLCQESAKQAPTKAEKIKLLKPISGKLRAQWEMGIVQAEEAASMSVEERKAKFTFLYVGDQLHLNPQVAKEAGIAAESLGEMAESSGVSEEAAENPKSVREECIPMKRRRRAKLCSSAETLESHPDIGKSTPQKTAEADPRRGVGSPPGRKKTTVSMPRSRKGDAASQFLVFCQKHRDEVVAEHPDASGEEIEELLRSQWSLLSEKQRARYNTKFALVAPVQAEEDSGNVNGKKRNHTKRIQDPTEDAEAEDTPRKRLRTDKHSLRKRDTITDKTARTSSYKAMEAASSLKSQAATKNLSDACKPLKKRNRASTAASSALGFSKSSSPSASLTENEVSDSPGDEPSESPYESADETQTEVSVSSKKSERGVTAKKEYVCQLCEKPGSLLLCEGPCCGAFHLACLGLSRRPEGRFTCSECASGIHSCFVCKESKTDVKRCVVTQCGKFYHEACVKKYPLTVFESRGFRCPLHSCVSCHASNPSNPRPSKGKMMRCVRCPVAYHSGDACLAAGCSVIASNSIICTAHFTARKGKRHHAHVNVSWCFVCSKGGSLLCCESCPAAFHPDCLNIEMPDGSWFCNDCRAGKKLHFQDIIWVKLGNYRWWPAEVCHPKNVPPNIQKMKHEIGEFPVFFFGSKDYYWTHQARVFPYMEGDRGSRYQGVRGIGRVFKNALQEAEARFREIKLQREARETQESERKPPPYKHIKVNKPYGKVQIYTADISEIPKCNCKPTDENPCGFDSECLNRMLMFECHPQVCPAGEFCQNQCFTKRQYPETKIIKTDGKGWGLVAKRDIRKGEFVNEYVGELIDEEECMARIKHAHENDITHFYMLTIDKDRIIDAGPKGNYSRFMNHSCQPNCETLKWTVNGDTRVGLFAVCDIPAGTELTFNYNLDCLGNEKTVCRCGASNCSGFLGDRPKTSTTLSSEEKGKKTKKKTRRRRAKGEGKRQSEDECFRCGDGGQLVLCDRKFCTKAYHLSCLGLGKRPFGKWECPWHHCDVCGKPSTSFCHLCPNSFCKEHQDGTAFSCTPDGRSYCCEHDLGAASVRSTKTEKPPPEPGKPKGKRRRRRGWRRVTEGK

NCI-H1703 [2] = assay: Induction of apoptosis in human NCI-H1703 cells assessed as viable cells at […] measured after 72 hrs by PI/Annexin-V staining based flow cytometry analysis (reference value: 92.7% ); assay type: functional; details: dose 7.5 µM, read-out: Activity
NCI-H1703 [3] = assay: Induction of apoptosis in human NCI-H1703 cells assessed as early apoptotic cells at 3 uM measured after 72 hrs by PI/Annexin-V staining based flow cytometry analysis (reference value: 1.47% ); assay type: functional
NCI-H1703 [4] = assay: Induction of apoptosis in human NCI-H1703 cells assessed as late apoptotic cells at 5 uM measured after 72 hrs by PI/Annexin-V staining based flow cytometry analysis (reference value: 3.00% ); assay type: functional
[5] = Downregulation of NSD3 level in human NCI-H1703 cells at 3 uM by measuring fold change by Western blot analysis relative to control; assay type: functional
NCI-H1703 [6] = assay: Induction of apoptosis in human NCI-H1703 cells assessed as decrease in NSD3 protein expression at 10 uM by measuring fold change by Western blot analysis relative to control; assay type: functional

With `Cc1cc(CNCCCCCCCCCCC(=O)N[C@H](C(=O)N2C[C@H](O)C[C@H]2C(=O)N[C@@H](C)c2ccc(-c3scnc3C)cc2)C(C)(C)C)cc(C)c1-c1ncn(C)c1-c1ccnc2cc(F)ccc12` the Activity [1] was “inactive”, the viability at […] (NCI-H1703 [2]) was 66.7% and the Activity (NCI-H1703 [3]) was 1.48%. The Activity (NCI-H1703 [4]) was 6.08%, the “fold change (FC)” value [5] was 0.97 and the “fold change (FC)” value (NCI-H1703 [6]) was 0.63.
